The text below walks through data of ChEMBL document CHEMBL4622870, “Design, synthesis and evaluation of hydrazine and acyl hydrazone derivatives of 5-pyrrolidin-2-one as antifungal agents” (Bioorg Med Chem Lett, 2020).

The subject of one data set is Candida tropicalis. Description: Antifungal activity against Candida tropicalis assessed as fungal growth inhibition at 100 ug/ml by micro-dilution method relative to control. In kind it is functional. Particulars: read-out: GI. (In general: Dilution methods test growth across graded concentrations, often in twofold steps.)
A further data set concerns Botrytis cinerea. In words: Antifungal activity against Botrytis cinerea assessed as fungal growth inhibition at 100 ug/ml by micro-dilution method relative to control. In kind it is functional. Particulars: read-out: GI.
The next data set relates to Paecilomyces variotii. Description: Antifungal activity against Paecilomyces variotii assessed as fungal growth inhibition at 100 ug/ml by micro-dilution method relative to control. The data set is classed as functional. Particulars: read-out: GI.
For a further data set, the system named is Sclerotinia sclerotiorum. In words: Antifungal activity against Sclerotinia sclerotiorum assessed as fungal growth inhibition at 100 ug/ml by micro-dilution method relative to control. The data set is classed as functional. Particulars: read-out: GI.
A further data set deals with Fusarium solani. Description: Antifungal activity against Fusarium solani assessed as fungal growth inhibition at 100 ug/ml by micro-dilution method relative to control. Particulars: read-out: GI. In kind it is functional.
Another data set concerns Pichia kudriavzevii. In words: Antifungal activity against Candida krusei assessed as fungal growth inhibition at 100 ug/ml by micro-dilution method relative to control. In kind it is functional. Particulars: read-out: GI.
Another data set relates to Alternaria alternata. Description: Antifungal activity against Alternaria alternata assessed as fungal growth inhibition at 100 ug/ml by micro-dilution method relative to control. Particulars: read-out: GI. In kind it is functional.
For the next data set, the system named is Aspergillus oryzae. In words: Antifungal activity against Aspergillus oryzae assessed as fungal growth inhibition at 100 ug/ml by micro-dilution method relative to control. In kind it is functional. Particulars: read-out: GI.
The next data set deals with Penicillium ochrochloron. In words: Antifungal activity against Penicillium ochrochloron assessed as fungal growth inhibition at 100 ug/ml by micro-dilution method relative to control. The data set is classed as functional. Particulars: read-out: GI.
A further data set concerns HEK293. In words: Cytotoxicity against human HEK293 cells assessed as effect on cell viability measured after 72 hrs by MTS assay. The data set is classed as cell-based. Particulars: hek293, 72 h. For orientation: Tetrazolium dyes change colour on reduction, which living cells bring about.
Data set [1] relates to Cladosporium cladosporioides. Description: Antifungal activity against Cladosporium cladosporioides assessed as fungal growth inhibition at 100 ug/ml by micro-dilution method relative to control. Particulars: read-out: GI. In kind it is functional.
A further data set concerns Geotrichum candidum. Description: Antifungal activity against Geotrichum candidum assessed as fungal growth inhibition at 100 ug/ml by micro-dilution method relative to control. Particulars: read-out: GI. The data set is classed as functional.
The subject of another data set is Kluyveromyces marxianus. In words: Antifungal activity against Candida pseudotropicalis assessed as fungal growth inhibition at 100 ug/ml by micro-dilution method relative to control. In kind it is functional. Particulars: read-out: GI.

Consider `CC(C)=CCC/C(C)=C/C=N/NC(=O)[C@@H]1CCC(=O)N1`, for which the inhibition of growth at 100 µg/mL is 38% with Candida tropicalis; 27% in the data set with Botrytis cinerea; 0% with Paecilomyces variotii; 15% in the data set with Sclerotinia sclerotiorum; 43% with Fusarium solani; 0% in the data set with Pichia kudriavzevii. Further, the inhibition of growth at 100 µg/mL in the data set on Alternaria alternata is 0%; in the data set with Aspergillus oryzae, 17%; with Penicillium ochrochloron, 0%; in data set [1], 27%; in the data set on Geotrichum candidum, 5%; in the data set with Kluyveromyces marxianus, 8%. Also, the Activity result in the data set on HEK293 is listed as “Non-Toxic”.

`O=C1CC[C@@H](C(=O)N/N=C/c2c(F)c(F)c(F)c(F)c2F)N1`: the inhibition of growth at 100 µg/mL amounted to 0% in the data set on Candida tropicalis; 17% with Botrytis cinerea; 0% in the data set with Paecilomyces variotii; 5% in the data set with Sclerotinia sclerotiorum; 40% with Fusarium solani; 0% in the data set with Pichia kudriavzevii. Besides, the inhibition of growth at 100 µg/mL was found to be 0% with Alternaria alternata; 4% with Aspergillus oryzae; 21% in the data set with Penicillium ochrochloron; 11% in data set [1]; 36% in the data set with Geotrichum candidum; 0% in the data set on Kluyveromyces marxianus. Moreover, the Activity result in the data set on HEK293 is “Non-Toxic”.

For the compound `O=C1CC[C@@H](C(=O)N/N=C/C2CCCCC2)N1`, the inhibition of growth at 100 µg/mL in the data set with Candida tropicalis was determined as 0%; in the data set on Botrytis cinerea it was 8%; with Paecilomyces variotii it was 36%; with Sclerotinia sclerotiorum, 0%; in the data set with Fusarium solani, 0%; in the data set on Pichia kudriavzevii, 0%. In addition, the inhibition of growth at 100 µg/mL in the data set on Alternaria alternata amounted to 8%; in the data set with Aspergillus oryzae, 8%; in the data set on Penicillium ochrochloron it was 23%; in data set [1], 1%; in the data set on Geotrichum candidum, 62%; in the data set on Kluyveromyces marxianus, 30%. In addition, the Activity entry in the data set with HEK293 is reported as “Non-Toxic”.

Turning to `N#Cc1ccc(/C=N/NC(=O)[C@@H]2CCC(=O)N2)cc1`, the inhibition of growth at 100 µg/mL amounted to 0% in the data set with Candida tropicalis; 0% in the data set on Botrytis cinerea; 33% in the data set on Paecilomyces variotii; 0% with Sclerotinia sclerotiorum; 0% with Fusarium solani; 10% in the data set with Pichia kudriavzevii. Besides, the inhibition of growth at 100 µg/mL came out at 42% with Alternaria alternata; 0% in the data set on Aspergillus oryzae; 20% in the data set on Penicillium ochrochloron; 0% in data set [1]; 0% with Geotrichum candidum; 0% in the data set with Kluyveromyces marxianus. In addition, in the data set on HEK293, the Activity entry was “Non-Toxic”.

Take `O=C1CC[C@@H](C(=O)N/N=C/c2cccc(C(F)(F)F)c2Cl)N1`: the inhibition of growth at 100 µg/mL in the data set on Candida tropicalis was 0%; in the data set with Botrytis cinerea it was 0%; in the data set on Paecilomyces variotii, 19%; with Sclerotinia sclerotiorum, 0%; in the data set with Fusarium solani, 0%; in the data set on Pichia kudriavzevii, 47%. The inhibition of growth at 100 µg/mL in the data set on Alternaria alternata amounted to 12%; in the data set on Aspergillus oryzae, 4%; in the data set with Penicillium ochrochloron it was 44%; in data set [1], 36%; in the data set with Geotrichum candidum, 62%; in the data set with Kluyveromyces marxianus, 18%. Besides, the Activity entry in the data set with HEK293 was “Non-Toxic”.

`COc1cc(/C=N/NC(=O)[C@@H]2CCC(=O)N2)ccc1O`: the inhibition of growth at 100 µg/mL in the data set with Candida tropicalis was 0%; in the data set with Botrytis cinerea, 0%; with Paecilomyces variotii it was 22%; in the data set on Sclerotinia sclerotiorum it was 0%; with Fusarium solani, 0%; with Pichia kudriavzevii, 37%. The inhibition of growth at 100 µg/mL amounted to 20% with Alternaria alternata; 0% with Aspergillus oryzae; 0% with Penicillium ochrochloron; 0% in [1]; 0% with Geotrichum candidum; 0% in the data set with Kluyveromyces marxianus. Besides, the Activity result with HEK293 is on record as “Non-Toxic”.

For `C=C(C)C1CC=C(/C=N/NC(=O)[C@@H]2CCC(=O)N2)CC1` (stereo not given in full), the inhibition of growth at 100 µg/mL in the data set on Candida tropicalis worked out at 0%; in the data set on Botrytis cinerea it was 13%; with Paecilomyces variotii, 31%; in the data set on Sclerotinia sclerotiorum it was 0%; with Fusarium solani, 0%; in the data set on Pichia kudriavzevii, 18%. Moreover, the inhibition of growth at 100 µg/mL in the data set with Alternaria alternata is 0%; in the data set with Aspergillus oryzae, 0%; with Penicillium ochrochloron it was 45%; in data set [1], 56%; in the data set on Geotrichum candidum, 39%; with Kluyveromyces marxianus it was 0%. For the same compound, the Activity entry with HEK293 was “Non-Toxic”.

With `O=C1CC[C@@H](C(=O)N/N=C/CCc2ccccc2)N1`, the inhibition of growth at 100 µg/mL was 17% with Candida tropicalis; 6% with Botrytis cinerea; 39% in the data set on Paecilomyces variotii; 0% with Sclerotinia sclerotiorum; 0% with Fusarium solani; 0% in the data set on Pichia kudriavzevii. Besides, the inhibition of growth at 100 µg/mL in the data set on Alternaria alternata turned out to be 0%; in the data set with Aspergillus oryzae, 0%; in the data set with Penicillium ochrochloron, 29%; in data set [1] it was 53%; in the data set on Geotrichum candidum it was 68%; in the data set with Kluyveromyces marxianus, 12%. For the same compound, the Activity entry in the data set on HEK293 was “Non-Toxic”.

For `O=C1CC[C@@H](C(=O)N/N=C/c2cc(F)ccc2F)N1`, the inhibition of growth at 100 µg/mL with Candida tropicalis came out at 0%; with Botrytis cinerea it was 6%; with Paecilomyces variotii, 37%; in the data set with Sclerotinia sclerotiorum it was 0%; with Fusarium solani, 58%; with Pichia kudriavzevii, 47%. The inhibition of growth at 100 µg/mL is 0% with Alternaria alternata; 13% in the data set with Aspergillus oryzae; 26% with Penicillium ochrochloron; 34% in data set [1]; 62% in the data set with Geotrichum candidum; 18% in the data set on Kluyveromyces marxianus. In the data set with HEK293, the Activity entry was “Non-Toxic”.

As for `CC1(C)C2CC=C(/C=N/NC(=O)[C@@H]3CCC(=O)N3)C1C2` (stereo not given in full), the inhibition of growth at 100 µg/mL came to 0% in the data set on Candida tropicalis; 0% with Botrytis cinerea; 39% in the data set on Paecilomyces variotii; 0% with Sclerotinia sclerotiorum; 0% in the data set with Fusarium solani; 0% in the data set with Pichia kudriavzevii. Further, the inhibition of growth at 100 µg/mL with Alternaria alternata turned out to be 0%; in the data set on Aspergillus oryzae, 4%; with Penicillium ochrochloron, 0%; in [1], 0%; in the data set on Geotrichum candidum, 0%; with Kluyveromyces marxianus, 18%. Also, the Activity entry in the data set with HEK293 is reported as “Non-Toxic”.
